The NIST ThermoML archive (doi:10.1016/j.tca.2013.08.031)

Test: molar heat capacity at constant volume
Conditions: Fluid (supercritical or subcritical phases), Vacuum adiabatic calorimetry

CCC(C)O (stereo unspecified) [butan-2-ol]
Conditions	molar heat capacity at constant volume [J/K/mol]
533.36 K, Mass density=301.19 kg/m3	394.33
533.36 K, Mass density=347.06 kg/m3	375.06
533.36 K, Mass density=474.07 kg/m3	196.42
533.54 K, Mass density=184.89 kg/m3	510.48
533.54 K, Mass density=198.25 kg/m3	497.8
533.54 K, Mass density=245.67 kg/m3	452.07
533.54 K, Mass density=284.93 kg/m3	412.49
533.54 K, Mass density=286.65 kg/m3	422.42
533.54 K, Mass density=301.19 kg/m3	399.52
533.54 K, Mass density=347.06 kg/m3	375.06
533.54 K, Mass density=474.07 kg/m3	196.42
533.68 K, Mass density=286.65 kg/m3	420.64
533.72 K, Mass density=184.89 kg/m3	467.11
533.72 K, Mass density=198.25 kg/m3	506.55
533.72 K, Mass density=245.67 kg/m3	456.07
533.72 K, Mass density=284.93 kg/m3	412.86
533.72 K, Mass density=301.19 kg/m3	403.96
533.72 K, Mass density=347.06 kg/m3	377.28
533.74 K, Mass density=184.89 kg/m3	332.58
533.76 K, Mass density=184.89 kg/m3	294.56
533.78 K, Mass density=184.89 kg/m3	303.68
533.8 K, Mass density=184.89 kg/m3	307.31
533.81 K, Mass density=184.89 kg/m3	283.59
533.91 K, Mass density=198.25 kg/m3	508.47
533.91 K, Mass density=245.67 kg/m3	462
533.91 K, Mass density=284.93 kg/m3	414.71
533.91 K, Mass density=286.65 kg/m3	429.46
533.91 K, Mass density=301.19 kg/m3	408.41
533.91 K, Mass density=347.06 kg/m3	375.06
534.09 K, Mass density=198.25 kg/m3	520.78
534.09 K, Mass density=245.67 kg/m3	460.22
534.09 K, Mass density=279.19 kg/m3	425.38
534.09 K, Mass density=284.93 kg/m3	420.86
534.09 K, Mass density=301.19 kg/m3	412.12
534.09 K, Mass density=347.06 kg/m3	382.47
534.27 K, Mass density=198.25 kg/m3	538.57
534.27 K, Mass density=245.67 kg/m3	465.85
534.27 K, Mass density=279.19 kg/m3	430.42
534.27 K, Mass density=284.93 kg/m3	420.42
534.27 K, Mass density=286.65 kg/m3	436.5
534.27 K, Mass density=347.06 kg/m3	387.66
534.46 K, Mass density=198.25 kg/m3	527.82
534.46 K, Mass density=245.67 kg/m3	472.82
534.46 K, Mass density=279.19 kg/m3	435.09
534.46 K, Mass density=284.93 kg/m3	425.75
534.46 K, Mass density=286.65 kg/m3	439.47
534.46 K, Mass density=301.19 kg/m3	418.79
534.46 K, Mass density=347.06 kg/m3	400.26
534.64 K, Mass density=184.89 kg/m3	279.36
534.64 K, Mass density=198.25 kg/m3	354.23
534.64 K, Mass density=245.67 kg/m3	484.53
534.64 K, Mass density=276.45 kg/m3	433.39
534.64 K, Mass density=279.19 kg/m3	437.91
534.64 K, Mass density=284.93 kg/m3	426.57
534.64 K, Mass density=301.19 kg/m3	421.75
534.64 K, Mass density=347.06 kg/m3	353.56
534.64 K, Mass density=403.55 kg/m3	223.85
534.82 K, Mass density=198.25 kg/m3	329.47
534.82 K, Mass density=245.67 kg/m3	491.43
534.82 K, Mass density=276.45 kg/m3	435.91
534.82 K, Mass density=279.19 kg/m3	441.54
534.82 K, Mass density=284.93 kg/m3	430.13
534.82 K, Mass density=301.19 kg/m3	429.16
534.82 K, Mass density=347.06 kg/m3	246.08
534.82 K, Mass density=403.55 kg/m3	223.11
535.01 K, Mass density=198.25 kg/m3	313.31
535.01 K, Mass density=245.67 kg/m3	498.39
535.01 K, Mass density=276.45 kg/m3	443.47
535.01 K, Mass density=284.93 kg/m3	435.02
535.01 K, Mass density=301.19 kg/m3	431.39
535.01 K, Mass density=347.06 kg/m3	242.38
535.01 K, Mass density=403.55 kg/m3	225.33
535.19 K, Mass density=198.25 kg/m3	319.91
535.19 K, Mass density=245.67 kg/m3	508.62
535.19 K, Mass density=276.45 kg/m3	453.85
535.19 K, Mass density=279.19 kg/m3	457.11
535.19 K, Mass density=284.93 kg/m3	440.21
535.19 K, Mass density=301.19 kg/m3	440.28
535.19 K, Mass density=347.06 kg/m3	243.12
535.19 K, Mass density=403.55 kg/m3	223.11
535.37 K, Mass density=184.89 kg/m3	286.33
535.37 K, Mass density=198.25 kg/m3	301.3
535.37 K, Mass density=245.67 kg/m3	516.03
535.37 K, Mass density=276.45 kg/m3	460.59
535.37 K, Mass density=279.19 kg/m3	465.85
535.37 K, Mass density=284.93 kg/m3	441.02
535.37 K, Mass density=286.65 kg/m3	467.56
535.37 K, Mass density=301.19 kg/m3	445.47
535.37 K, Mass density=403.55 kg/m3	219.4
535.55 K, Mass density=184.89 kg/m3	286.55
535.55 K, Mass density=245.67 kg/m3	535.08
535.55 K, Mass density=276.45 kg/m3	474.75
535.55 K, Mass density=279.19 kg/m3	472.08
535.55 K, Mass density=284.93 kg/m3	454.96
535.55 K, Mass density=286.65 kg/m3	474.38
535.55 K, Mass density=301.19 kg/m3	458.07
535.55 K, Mass density=347.06 kg/m3	243.12
535.55 K, Mass density=403.55 kg/m3	220.88
535.74 K, Mass density=198.25 kg/m3	286.33
535.74 K, Mass density=245.67 kg/m3	563.92
535.74 K, Mass density=276.45 kg/m3	489.72
535.74 K, Mass density=279.19 kg/m3	488.09
535.74 K, Mass density=284.93 kg/m3	470.52
535.74 K, Mass density=286.65 kg/m3	487.57
535.74 K, Mass density=301.19 kg/m3	477.34
535.74 K, Mass density=347.06 kg/m3	249.05
